# Measured values reported in US7618968B2, “Aryl triazines as LPAAT-β inhibitors and uses thereof” (Cell Therapeutics, Inc., priority 2001, dated 2009).
# Molecular target: T1, LPAAT-β (Homo sapiens, UniProt O15120)
# T1 construct: the full-length human LPAAT-β cDNA was amplified by PCR; poly-histidine tag (from pFastBac HTc vector) (N); made in house; host or cells: Sf9 insect cells (baculovirus); membrane fraction used
# T1 sequence (O15120 24-278): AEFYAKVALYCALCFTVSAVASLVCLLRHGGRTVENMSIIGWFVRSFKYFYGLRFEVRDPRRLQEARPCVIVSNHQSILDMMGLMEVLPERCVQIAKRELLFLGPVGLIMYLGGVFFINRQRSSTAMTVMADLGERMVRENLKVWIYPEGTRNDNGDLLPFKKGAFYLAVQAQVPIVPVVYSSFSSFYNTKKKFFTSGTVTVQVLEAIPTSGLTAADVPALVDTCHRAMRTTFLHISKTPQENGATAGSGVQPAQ
# Experiment: LPAAT-β cell-free assay (colorimetric primary screen, radiometric/fluorescent TLC secondary assay)
# Format: biochemical
# Conditions: Sf9 cell membrane overexpressing LPAAT-β
# Text: A. Production of Recombinant LPAAT-β for Assays
# For the construction of Baculovirus expression vectors, the full-length human LPAAT-β cDNA was amplified by PCR from the DNA template pCE9.LPAAT-β (West et al., DNA Cell Biol. 16:691-701 (1997)) using the primers 5′-[…] […] […] […]-3′ (olpb1F; SEQ ID NO:1) and 5′-[…] […] […]-3′ (olpb1R; SEQ ID NO:2). The ˜870 bp fragment generated was reamplified by PCR using the primers 5′[…] […] […] […] ATC-3′ (olpb2F; SEQ ID NO:3) and 5′-[…] […] […]-3′ (olpb1R; SEQ ID NO:2). The ˜890 bp fragment generated was then cleaved with Sal I and Xba I for insertion into pFastBac™ HTc vector (Life Technologies, Gaithersberg, Md.) between the Sal I and Xba I sites for the generation of the plasmid pFB.LPAAT-β. This plasmid was then transformed into E. coli DH10Bac™ (Life Technologies, Gaithersberg, Md.) for the generation of recombinant Bacmid DNA for transfection in HighFive (Invitrogen, San Diego, Calif.) or SF9 insect cells for the production of recombinant Baculovirus stocks using the protocol described in the Bac-to-Bac® Baculovirus Expression System (Life Technologies, Gaithersberg, Md.), a eukaryotic expression system for generating recombinant baculovirus through site-specific transposition in E. coli. Viral stocks harvested from the transfected cells can then be used to infect fresh insect cells for the subsequence expression of LPAAT-β fusion protein with a poly-histidine tag and a myc-epitope near its N-terminus. The membrane fraction from these Sf9 cells would be the source of LPAAT enzyme.
# B. Preparation of Cell Membranes from Sf9 Cells
# For the preparation of membranes from Sf9 Cells, all steps are performed on ice or at 4° C. Sf9 cell pellets (˜10^8 cells) were thawed and resuspended in 1-2 ml of buffer A (20 mM Hepes, pH 7.5, 1 mM DTT, 1 mM EDTA, 20% w/v glycerol, 1 mM Benzamidine, 1 μg/ml soybean trypsin inhibitor (SBTI), 1 μg/ml pepstatin A) w/o DTT but with 1 mM Pefabloc. The cells were lysed by sonication using a Branson Sonifier at output=2, duty cycle=2, 10 pulses each at 10s. with the tip of small sonicator probe submerged but not touching the walls. DTT was then added to 1 mM from a 1 M stock. The samples were centrifuged at 1500 rpm for 5 min. The low speed supernatant was saved and centrifuged (TLA 100.3 rotor, polycarbonate tubes, 2 ml/tube or 1.5 ml/tube minimum) at 100000×g for 1 hr. The high speed pellet was resuspend in Buffer A with a probe sonicator (10 pulses @ output #2 and duty cycle 20%) as a source of LPAAT enzyme.
# C. Assay of LPAAT-β Activity
# LPAAT-β catalyzes the transfer of an acyl group from a donor such as acyl-CoA to LPA. The transfer of the acyl group from acyl-CoA to LPA leads to the release of free CoA, which can be reacted with the thiol reagent, 5,5′-dithiobis(2-nitrobenzoic acid) (DTNB). The reaction between DTNB and the free sulfhydryl group from CoA generates a yellow-colored product, 3-carboxylato-4-nitrothiophenolate (CNP), that absorbs at 413 nm. LPAAT-β derived from Sf9 cell membrane overexpressing LPAAT-β were resuspended in HEPES saline buffer (20 mM HEPES pH 7.5, 150 mM NaCl), 1 mg/ml BSA and 72 μl aliquots were distributed into 96-well microtiter plates. 8 μl of compound of interest at 200 μM dissolved in 100% DMSO was added into each well. 20 μl of 1 mM 18:1-CoA and 1 mM sn-1-18:1 lysoPA was then added to each well to initiate the reaction and allowed to run at room temperature for 25 min. 100 μl of 1 mM DTNB in 100% ethanol was then added to each well to quench the reaction and for color development. The absorbance at 405 nm, measured using a spectrophotometer plate reader, is proportional to the activity of LPAAT-β in the sample. This colorimetric assay was used for the high throughput screening of LPAAT inhibitors.
row,IC50 [µM],Compound
1,0.1,"Nc1nc(Nc2ccc(Cl)cc2)nc(-c2cc(C(F)(F)F)ccc2Cl)n1 [Example 81, N-(4-Chloro-phenyl)-6-(2-chloro-5-trifluoromethyl-phenyl)-[1,3,5]triazine-2,4-diamine]"
2,0.6,"COCCOc1ccc(Cl)cc1-c1nc(N)nc(Nc2ccc(Cl)cc2)n1 [Example 65, 6-[5-Chloro-2-(2-methoxy-ethoxy)-phenyl]-N-(4-chloro-phenyl) [1,3,5]triazine-2,4-diamine]"
3,2.1,"Cc1ccc(Cl)cc1-c1nc(N)nc(Nc2ccc(COC(=O)C[C@H](N)C(=O)O)cc2)n1 [Example 73, (S)-2-Amino-succinic acid 4-{4-[4-amino-6-(5-chloro-2-methyl-phenyl)-[1,3,5]triazin-2-ylamino]-benzyl}ester]"
4,0.45,"Cc1ccc(Br)c(-c2nc(N)nc(Nc3ccc(Cl)cc3)n2)c1 [Example 86, 6-(2-bromo-5-methyl-phenyl)-N-(4-chloro-phenyl)-[1,3,5]triazine-2,4-diamine]"
5,1.3,"Cc1ccc(Cl)cc1-c1nc(N)nc(Nc2ccc(COC(=O)[C@H](C)N)cc2)n1 [Example 77, 2-Amino-propionic acid 4-[4-amino-6-(5-chloro-2-methyl-phenyl)-[1,3,5]-triazin-2-ylamino]-benzyl ester]"
6,0.3,"Nc1nc(Nc2ccc3c(c2)OCO3)nc(-c2cc(Cl)ccc2Cl)n1 [Example 82, N-Benzo[1.3]dioxol-5-yl-6-(2,5-dichloro-phenyl)-[1,3,5]triazine-2,4-diamine]"
7,1.4,"Cc1ccc(Cl)cc1-c1nc(N)nc(Nc2ccc(COC(=O)[C@@H](N)CC(=O)O)cc2)n1 [Example 72, (S)-2-Amino-succinic acid 1-{4-[4-amino-6-(5-chloro-2-methyl-phenyl)-[1,3,5]triazin-2-ylamino]-benzyl}ester]"
8,1.3,"Cc1ccc(Cl)cc1-c1nc(N)nc(Nc2ccc(CC(=O)O)cc2)n1 [Example 60, {4-[4-Amino-6-(5-chloro-2-methyl-phenyl)-[1,3,5]triazin-2-ylamino]-phenyl}-acetic acid]"
9,0.14,"Nc1nc(Nc2ccc(Cl)cc2)nc(-c2cc(Cl)ccc2Br)n1 [Example 80, 6-(2-Bromo-5-chloro-phenyl)-N-(4-chloro-phenyl)-[1,3,5]triazine-2,4-diamine]"
10,0.18,"Cc1ccc(Cl)cc1-c1nc(N)nc(Nc2ccc(CCl)cc2)n1 [Example 88, N-(4-Chloromethyl-phenyl)-6-(5-chloro-2-methyl-phenyl)-[1,3,5]triazine-2,4-diamine]"
11,0.97,"Cc1ccc(Cl)cc1-c1nc(N)nc(Nc2ccc(COC(=O)[C@@H](N)CCCNC(=N)N)cc2)n1 [Example 75, (S)-2-Amino-5-guanidino-pentanoic acid 4-[4-amino-6-(5-chloro-2-methyl-phenyl)-[1,3,5]triazin-2-ylamino]-benzyl ester]"
12,0.07,"Nc1nc(Nc2ccc(Cl)cc2)nc(-c2cc(Cl)ccc2F)n1 [Example 85, 6-(5-Chloro-2-fluoro-phenyl)-N-(4-chloro-phenyl)-[1,3,5]triazine-2,4-diamine]"

# Further lines, the compound ahead of its results:
row,Compound,IC50 [µM]
1,"CCOc1ccc(Cl)cc1-c1nc(N)nc(Nc2ccc(Cl)cc2)n1 [Example 7, 6-(5-Chloro-2-ethoxyphenyl)-N-(4-Chlorophenyl)-[1,3,5]triazine-2,4-diamine]",0.14
2,"CNc1ccc(Cl)cc1-c1nc(N)nc(Nc2ccc(Cl)cc2)n1 [Example 44, 6-(5-Chloro-2-methylaminophenyl)-N-(4-chlorophenyl)-[1,3,5]triazine-2,4-diamine]",1.5
3,"Cc1ccc(Cl)cc1-c1nc(N)nc(Nc2ccc(N=[N+]=[N-])cc2)n1 [Example 36, 6-(5-Chloro-2-methyl-phenyl)-N-(4-azido-phenyl)-amino-[1,3,5]triazine-2,4-diamine]",0.88
4,"Cc1ccc(Cl)cc1-c1nc(Cl)nc(Nc2ccc(N=[N+]=[N-])cc2)n1 [Example 35, [6-(5-Chloro-2-methyl-phenyl)-2-chloro-3-yl-[1,3,5]-triazin-4-yl]-(4-azido-phenyl)-amine]",0.13
5,"CNC(=O)c1cc(Nc2nc(N)nc(-c3cc(Cl)ccc3C)n2)ccc1Cl [Example 43, 5-[4-amino-6-(5-chloro-2-methylphenyl)-[1,3,5]triazin-2-ylamino]-2-chloro-N-methylbenzamide]",0.4
6,"CCCOc1ccc(Cl)cc1-c1nc(N)nc(Nc2ccc(Cl)cc2)n1 [Example 50, N-(4-Chloro-phenyl)-6-(5-chloro-2-propoxy-phenyl)-[1,3,5]triazine-2,4-diamine]",0.2
7,"Nc1nc(Nc2ccc(Br)cc2)nc(-c2cc(Cl)ccc2Cl)n1 [Example 12, N-2-(4-Bromophenyl)-6-(2,5-dichlorophenyl)-[1,3,5]triazine-2,4-diamine]",0.07
8,"COc1ccc(OC)c(-c2nc(N)nc(Nc3ccc(Cl)cc3)n2)c1 [Example 17, N-(4-chlorophenyl)-6-(2,5-dimethoxyphenyl)-[1,3,5]triazine-2,4-diamine]",1
9,"Cc1ccc(Cl)cc1-c1nc(N)nc(Nc2ccc(Br)cc2)n1 [Example 11, N-2-(4-Bromophenyl)-6-(5-chloro-2-methylphenyl)-[1,3,5]triazine-2,4-diamine]",0.06
10,"Cc1ccc(Cl)cc1-c1nc(N)nc(Nc2ccc3c(c2)OCO3)n1 [Example 19, N-Benzo[1.3]dioxol-5-yl-6-(5-chloro-2-methyl-phenyl)-[1,3,5]triazine-2,4-diamine]",0.2
11,"COc1ccc(Cl)cc1-c1nc(N)nc(Nc2ccc([N+](=O)[O-])cc2)n1 [Example 3, 6-(5-Chloro-2-methoxyphenyl)-N-(4-nitrophenyl)-[1,3,5]triazine-2,4-diamine]",0.022
12,"Cc1ccc(Cl)cc1-c1nc(N)nc(Nc2ccc3c(c2)CCC3)n1 [Example 37, 6-(5-Chloro-2-methyl-phenyl)-N-indan-5-yl-[1,3,5]triazine-2,4-diamine]",0.59
13,"Cc1ccc(Cl)cc1-c1nc(Cl)nc(Nc2ccc(Br)cc2)n1 [Example 20, (4-Bromo-phenyl)-[4-chloro-6-(5-chloro-2-methyl-phenyl)-[1,3,5]triazin-2-yl]-amine]",0.01
14,"CN(C)c1ccc(Cl)cc1-c1nc(N)nc(Nc2ccc(Cl)cc2)n1 [Example 47, 6-(5-Chloro-2-dimethylaminophenyl)-N-(4-chlorophenyl)-[1,3,5]triazine-2,4-diamine]",0.14
15,Cc1nc(Nc2ccc(Br)cc2)nc(-c2cc(Cl)ccc2C)n1 [Example 23],0.014
16,"Nc1nc(Nc2ccc(Cl)cc2)nc(-c2cc(Cl)ccc2Cl)n1 [Example 4, 6-(2,5-Dichlorophenyl)-N-(4-chlorophenyl)-[1,3,5]triazine-2,4-diamine]",0.05
17,COc1nc(Nc2ccc(Br)cc2)nc(-c2cc(Cl)ccc2C)n1 [Example 21],0.2
18,"Cc1nc(Nc2ccc3cn[nH]c3c2)nc(-c2cc(Cl)ccc2C)n1 [Example 22, [4-(5-Chloro-2-methyl-phenyl)-6-methyl-[1,3,5]triazin-2-yl]-(1H-indazol-6-yl)-amine]",0.013
